According to patent US20220372014A1, “NEUROPROTECTIVE COMPOUNDS AND METHODS OF USE THEREOF” (The Johns Hopkins University, priority 2019, published 2022):

Tests used:
[1] = biological target: T1, PARP-1 (Homo sapiens, UniProt P09874); assay: In vitro ribosylation assay (IVRA) of PARP-1; type: biochemical; details: 1 μM
T1 construct: purchased Trevigen
Experimental: In vitro ribosylation assay of PARP-1. […] of recombinant PARP-1, activated DNA and NAD+(Trevigen) in the presence or absence of 1 μM of PARP-1 inhibitor, ABT-888 or PAAN/MIF inhibitors (compound 56 or 121) were incubated in the PARP assay buffer (Trevigen) for 30 m at room temperature and analyzed by immunoblot analysis using PAR antibody.

[2] = test system: human cortical neurons; assay: α-syn PFF-induced cell death in human cortical neurons (Hoechst and PI staining); type: cell-based; details: pre-incubated 1 h, α-syn PFF 14 days
Experimental: (§1) Preparation of human cortical neurons. Human H1 embryonic stem cells (ESCs) were differentiated into cortical neurons as previously described. See Xu et al. (2016) Sci. Transl. Med. 8:333ra48. Briefly, ESC colonies detached from mouse embryonic fibroblasts (MEFs) were grown in suspension in human ESC medium without FGF2 for 6 days in low-attachment six-well plates (Corning). On day 7, free-floating embyroid bodies (EB)s were transferred to Matrigel coated plates to allow the complete attachment of EB and formation of rosette neuronal aggregates (RONAs). RONAs were manually microisolated and maintained as neurospheres for 1 day and then dissociated into single cells and plated on laminin/poly-D-lysine-coated plates for further experiments. […]
Cell death and viability assessment. Primary cultured cortical neurons were treated with 5 μg/ml of α-syn PFF for 14 days and cell death was determined by staining of all nuclei with 7 μM Hoechst 33342 and dead cell nuclei with 2 μM propidium iodide (PI) (Invitrogen). The numbers of total and dead cells were counted with the Axiovision 4.6 software (Carl Zeiss). Cell viability was determined by fluorescence at an excitation wavelength 570 nm and an emission wavelength 585 nm using Alamar Blue (Invitrogen).

[3] = test system: mouse cortical neurons; assay: Pulsed-field gel electrophoresis of α-syn PFF-induced DNA damage in mouse cortical neurons; type: cell-based
Experimental: (§2) Preparation and quantification of genomic DNA. The striatum was rapidly removed from the brain and lysed by repetitive pipetting with a micropipette in lysis buffer [100 mM NaCl, 10 mM Tris-HCl (pH 8.0), 25 mM EDTA (pH 8.0), 0.5% SDS] with 0.2 mg/ml proteinase K (Roche Diagnotics). Samples were incubated 55° C. for overnight and further incubated 85° C. for 45 m to inactivate proteinase K. The genomic DNA were immediately separated on a 1.2% pulse field certified agarose in 0.5×TBE buffer with initial switch time of 1.5 s and a final switch time of 3.5 s for 12 h at 6 V/cm. The gel was then stained with […] Ethidium Bromide (EtBr) and visualized on UV light. Noncleaved genomic DNA was quantified as percentage (%) of the total genomic DNA that included both noncleaved genomic DNA and cleaved genomic DNA in each individual group.
Cell culture, transfection, primary neuronal culture and treatment. SH-SY5Y cells (ATCC) were cultured in DMEM containing 10% fetal bovine serum and penicillin/streptomycin at 37° C. under 5% C02. The cells were transfected using PolyFect reagent (Qiagen). Parthanatos was induced by the treatment of 50 μM MNNG for 15 min in SH-SY5Y cells. ABT-888 or PAAN/MIF inhibitors were pretreated with indicated concentration 1 h before MNNG treatment and cell death were assessed after 24 h. […]

[4] = test system: human cortical neurons; assay: Pulsed-field gel electrophoresis of α-syn PFF-induced DNA damage in human cortical neurons; type: cell-based
Experimental: as §2
as §1, with “(RONAs).” for “(RONAs). RONAs were manually microisolated and maintained as neurospheres for 1 day and then dissociated into single cells and plated on laminin/poly-D-lysine-coated plates for further experiments.”

[5] = biological target: T2, PAAN/MIF WT or variants (Homo sapiens, UniProt P14174); assay: Biolayer interferometry (ForteBio Octet) binding assay; details: PAAN/MIF WT
T2 construct: made in house; host or cells: Escherichia coli
From the text: Purification of PAAN/MIF recombinant proteins. Human PAAN/MIF (NM_002415) cDNA and its variants were subcloned into pGEX-6β-1 vector (GE Healthcare) and mutants were generated using a QuikChange site-directed mutagenesis kit (Stratagene). The sequences were confirmed by automated DNA sequencing. The protein was expressed and purified from Escherichia coli by glutathione sepharose (GE Healthcare). The GST tag was subsequently proteolytically removed. GST protein was used as a negative control in the nuclease assay and PAAN/MIF proteins purified by FPLC using Superdex 200 10/300GL column (GE Healthcare, Life Sciences) were also used in the nuclease assays.
Biolayer interferometry assay. The dose-dependent binding of compound 121 for PAAN/MIF WT or PAAN/MIF variants were determined by a biolayer interferometry assay using Octet RED96 (ForteBio). See Guo et al. (2018) Nat. Chem. 11:254-63. All the proteins used in this assay were tagged with GST. Anti-GST biosensor tips (ForteBio) were used to immobilize the GST proteins after prewetting with 1X kinetic buffer (ForteBio). The equilibrated GST biosensors were loaded with PAAN/MIF WT or variants (25 μg/ml). Background binding controls were measured by sensors that were incubated in buffer without proteins. All assays were performed by a standard protocol in 96-well black plates (Greiner Bio) with a total volume of 200 μl per well. All the data were analyzed by Octet data analysis software.

[6] = test system: α-syn PFF injected WT mice; assay: Intrastriatal α-syn PFF mouse model (TH/Nissl stereology, HPLC of dopamine and DOPAC, pole test, grip strength test, pulsed-field gel, weight)
[7] = both doses, 5 and 15 mg/kg/day oral, 5 months

T1 sequence (P09874 whole entry): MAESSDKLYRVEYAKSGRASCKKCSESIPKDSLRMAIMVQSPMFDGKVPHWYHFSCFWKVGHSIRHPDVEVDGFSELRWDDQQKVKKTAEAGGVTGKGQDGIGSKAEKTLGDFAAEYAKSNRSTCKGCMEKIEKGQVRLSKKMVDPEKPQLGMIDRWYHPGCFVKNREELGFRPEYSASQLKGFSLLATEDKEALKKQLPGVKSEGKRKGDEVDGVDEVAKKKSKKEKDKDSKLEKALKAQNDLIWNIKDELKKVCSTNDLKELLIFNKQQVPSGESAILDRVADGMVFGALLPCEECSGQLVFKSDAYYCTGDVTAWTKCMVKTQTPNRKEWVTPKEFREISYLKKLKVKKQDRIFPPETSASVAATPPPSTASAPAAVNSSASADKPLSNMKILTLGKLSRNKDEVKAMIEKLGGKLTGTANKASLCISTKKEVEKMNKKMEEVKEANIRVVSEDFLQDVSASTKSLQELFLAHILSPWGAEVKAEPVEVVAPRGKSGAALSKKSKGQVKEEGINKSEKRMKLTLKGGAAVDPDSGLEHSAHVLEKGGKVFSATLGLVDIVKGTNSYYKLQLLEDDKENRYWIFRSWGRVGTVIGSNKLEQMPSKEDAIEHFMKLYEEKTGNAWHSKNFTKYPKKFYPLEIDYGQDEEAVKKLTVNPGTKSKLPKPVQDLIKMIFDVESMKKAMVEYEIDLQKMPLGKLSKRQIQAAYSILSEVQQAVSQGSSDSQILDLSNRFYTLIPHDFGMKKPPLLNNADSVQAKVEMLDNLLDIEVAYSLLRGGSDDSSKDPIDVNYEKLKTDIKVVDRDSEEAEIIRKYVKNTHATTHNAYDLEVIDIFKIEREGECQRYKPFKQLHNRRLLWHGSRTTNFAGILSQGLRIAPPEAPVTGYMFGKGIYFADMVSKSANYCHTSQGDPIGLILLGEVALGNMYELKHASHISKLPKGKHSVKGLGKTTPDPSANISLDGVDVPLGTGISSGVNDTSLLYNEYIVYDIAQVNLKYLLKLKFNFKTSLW

| Structure (SMILES) | ABT-888 sensitive PARP activity [1] | cell death in human cortical neurons treated with human α-syn PFF [2] | genomic DNA cleavage in mouse cortical neurons treated with α-syn PFF [3] | genomic DNA cleavage in human cortical neurons treated with human α-syn PFF [4] | binding to PAAN/MIF [5] | Kd, binding affinity of PAAN/MIF [5] | tolerability (toxicity, weight) ([6]; 5 and 15 mg/kg/day oral, 5 months) | behavioral deficits (pole test, grip strength test) [6, 7] | loss of DA neurons (TH and Nissl stereology, TH immunoblot, HPLC of DA and DOPAC) [6, 7] | α-syn PFF-induced large scale genomic DNA cleavage in vivo ([6]; pulse gel electrophoresis) |
| --- | --- | --- | --- | --- | --- | --- | --- | --- | --- | --- |
| COc1ccc(CC[C@H]2OC(=O)[C@@H]3CCCCN3C(=O)C(=O)C(C)(C)COC(=O)C=CCCN(C)C(=O)[C@@H]3CCCN3C(=O)[C@H](COC(C)(C)C)N(C)C(=O)C(c3ccccc3)NC(=O)[C@H](C)N(C)C(=O)COc3cccc2c3)cc1OC (some centres unmarked) [compound 56] | failed to inhibit | protected against cell death similar to ABT-888 | protected against genomic DNA cleavage | prevented genomic DNA cleavage | – | – | – | – | – | – |
| COc1ccc(CC[C@H]2OC(=O)[C@@H]3CCCCN3C(=O)C(=O)C(C)(C)COC(=O)C=CCCN(C)C(=O)[C@H](C)NC(=O)[C@H](C(C)C)N(C)C(=O)[C@@H](Cc3ccccc3)NC(=O)[C@H](CC(C)C)N(C)C(=O)CCC(=O)Nc3cccc2c3)cc1OC [compound 77] | – | protected against cell death similar to ABT-888 | – | prevented genomic DNA cleavage | – | – | – | – | – | – |
| COc1ccc(CC[C@H]2OC(=O)[C@@H]3CCCCN3C(=O)C(=O)C(C)(C)COC(=O)C=CCCN(C)C(=O)[C@@H]3CCCN3C(=O)[C@H](CO)N(C)C(=O)C(c3ccccc3)NC(=O)[C@H](C)N(C)C(=O)COc3cccc2c3)cc1OC (some centres unmarked) [compound 97] | – | – | – | – | lack of binding | – | – | – | – | – |
| COc1ccc(CC[C@H]2OC(=O)[C@@H]3CCCCN3C(=O)C(=O)C(C)(C)COC(=O)C=CCCN(C)C(=O)[C@@H]3CCCN3C(=O)[C@H](COC(C)(C)C)N(C)C(=O)C(c3ccccc3)NC(=O)[C@H](C)N(C)C(=O)COc3cc(F)cc2c3)cc1OC (mixture of isomers) [compound 121] | failed to inhibit | – | protected against genomic DNA cleavage | – | – | 1560 nM | no overt toxicity or weight loss | prevents | prevents the loss of DA neurons | significantly attenuated |
